Test results taken from ChEMBL document CHEMBL4825721, “Dual Glycolate Oxidase/Lactate Dehydrogenase A Inhibitors for Primary Hyperoxaluria” (ACS Med Chem Lett, 2021).
Active and inactive are the calls of the source. The calls are words filed in the database; no cut-off is given here.

Tests used:
2-Hydroxyacid oxidase 1 [1] = biological target: T1, 2-Hydroxyacid oxidase 1 (Homo sapiens, UniProt Q9UJM8); test: Inhibition of recombinant human GOX expressed in Escherichia coli C41 (DE3) using glycolate as substrate preincubated for 10 mins followed by substrate addition measured by Amplex red and horseradish peroxidase based fluorescence assay
T1 sequence (Q9UJM8 whole entry): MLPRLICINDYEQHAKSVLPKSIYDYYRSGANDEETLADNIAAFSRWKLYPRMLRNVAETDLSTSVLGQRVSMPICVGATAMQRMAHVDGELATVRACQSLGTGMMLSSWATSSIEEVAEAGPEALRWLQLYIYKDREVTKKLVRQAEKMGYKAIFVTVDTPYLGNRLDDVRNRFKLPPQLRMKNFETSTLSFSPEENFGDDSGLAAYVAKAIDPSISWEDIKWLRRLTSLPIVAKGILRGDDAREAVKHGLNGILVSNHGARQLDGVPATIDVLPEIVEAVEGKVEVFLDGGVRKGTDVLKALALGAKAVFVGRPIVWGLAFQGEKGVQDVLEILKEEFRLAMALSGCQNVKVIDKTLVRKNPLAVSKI

[2] = biological target: L-lactate dehydrogenase A chain (Homo sapiens, UniProt P00338); test: Inhibition of recombinant human LDHA expressed in BL21 gold (DE3) using sodium pyruvate as substrate preincubated for 10 mins followed by sodium pyruvate and […] addition
[3] = biological target: T2, L-lactate dehydrogenase A chain (Mus musculus, UniProt P06151); test: Inhibition of LDHA in wild type CD1 mouse primary hepatocyte assessed as inhibition of lactate production using pyruvate as substrate measured after 30 mins by LC-MS analysis; type: tissue-based
[4] = biological target: T2, L-lactate dehydrogenase A chain; test: Inhibition of recombinant mouse LDHA expressed in BL21 gold (DE3) using sodium pyruvate as substrate preincubated for 10 mins followed by sodium pyruvate and […] addition
[5] = In vivo inhibition of GOX/LDHA in C57BL/6N mouse assessed as increase in plasma glycolate levels at 100 mg/kg, po measured after 2 hrs; type: functional
[6] = Inhibition of GOX/LDHA in Ag xt knockdown PH1 mouse primary hepatocyte assessed as reduction of oxalate production in the presence of glycolate measured after 2 hrs by ICMS analysis; type: tissue-based
2-Hydroxyacid oxidase 1 [7] = biological target: T3, 2-Hydroxyacid oxidase 1 (Mus musculus, UniProt Q9WU19); test: Inhibition of recombinant mouse GOX expressed in Escherichia coli C41 (DE3) using glycolate as substrate preincubated for 10 mins followed by substrate addition measured by Amplex red and horseradish peroxidase based fluorescence assay
T3 sequence (Q9WU19 whole entry): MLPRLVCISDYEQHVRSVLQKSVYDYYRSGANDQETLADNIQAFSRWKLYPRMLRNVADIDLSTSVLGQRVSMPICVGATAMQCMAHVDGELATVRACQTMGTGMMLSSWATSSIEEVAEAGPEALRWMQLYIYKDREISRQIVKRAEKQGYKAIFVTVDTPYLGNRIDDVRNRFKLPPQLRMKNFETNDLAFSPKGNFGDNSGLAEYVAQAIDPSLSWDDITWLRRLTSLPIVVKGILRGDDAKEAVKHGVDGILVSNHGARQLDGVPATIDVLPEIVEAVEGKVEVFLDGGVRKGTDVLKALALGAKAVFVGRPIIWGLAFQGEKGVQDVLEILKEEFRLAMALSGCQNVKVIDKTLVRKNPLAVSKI

[8] = Drug distribution in C57BL/6N mouse liver at 100 mg/kg, po measured after 2 hrs by LC-MS/MS analysis; type: ADME, organism-based; conditions: in vivo
Mus musculus = test: In vivo inhibition of GOX/LDHA in C57BL/6N mouse assessed as increase in plasma glycolate levels at 100 mg/kg, po measured after 6 hrs; type: functional, organism-based
[9] = Drug distribution in C57BL/6N mouse liver at 100 mg/kg, po measured after 6 hrs by LC-MS/MS analysis; type: ADME, organism-based; conditions: in vivo
2-Hydroxyacid oxidase 1 [10] = biological target: T3, 2-Hydroxyacid oxidase 1; test: Non competitive inhibition of mouse glycolate oxidase in hyperoxaluric-Agxt knockdown mouse primary hepatocyte assessed as reduction in oxalate production in the presence of glycolate measured upto 72 hrs by enzymatic assay; type: tissue-based
Hydroxyacid oxidase 1 = biological target: T4, Hydroxyacid oxidase 1 (Sus scrofa, UniProt I3LVF1); test: Inhibition of pig HAO1 in presence of NADH by spectrometry analysis
T4 sequence (I3LVF1 whole entry): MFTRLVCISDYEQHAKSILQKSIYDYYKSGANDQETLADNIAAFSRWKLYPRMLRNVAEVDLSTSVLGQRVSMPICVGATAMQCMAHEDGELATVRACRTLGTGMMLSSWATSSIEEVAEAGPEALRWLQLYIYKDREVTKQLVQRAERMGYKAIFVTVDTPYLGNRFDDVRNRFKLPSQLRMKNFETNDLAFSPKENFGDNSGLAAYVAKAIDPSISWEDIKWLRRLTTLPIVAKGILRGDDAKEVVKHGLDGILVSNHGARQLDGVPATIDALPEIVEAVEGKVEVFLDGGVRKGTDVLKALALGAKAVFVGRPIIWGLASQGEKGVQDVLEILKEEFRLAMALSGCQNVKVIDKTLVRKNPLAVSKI

NS(=O)(=O)c1ccc(Cc2c(-c3ccc(F)c(-c4ccc(Sc5nn[nH]c5C(=O)O)cc4)c3)nn(-c3nc(C(=O)O)cs3)c2CC2CC2)cc1F
IC50 (2-Hydroxyacid oxidase 1 [1]): 1.1 nM | IC50 [2]: 0.3 nM | IC50 [3]: 230 nM | IC50 [4]: 0.2 nM

NS(=O)(=O)c1ccc(Cc2c(-c3ccc(F)c(-c4ccc(-c5nn[nH]c5C(=O)O)cc4)c3)nn(-c3nc(C(=O)O)cs3)c2CC2CC2)cc1F
IC50 (2-Hydroxyacid oxidase 1 [1]): 3.6 nM | IC50 [2]: 0.3 nM | IC50 [3]: 170 nM | IC50 [4]: 0.4 nM

O=C(O)c1[nH]nnc1Sc1ccc(Cl)cc1
fold change (FC) [5]: 4 | IC50 [6]: 149 nM | IC50 (2-Hydroxyacid oxidase 1 [1]): 6.7 nM | IC50 (2-Hydroxyacid oxidase 1 [7]): 14.6 nM | Drug uptake [8]: Active

NS(=O)(=O)c1ccc(Cc2c(-c3cccc(-c4ccccc4)c3)nn(-c3nc(C(=O)O)cs3)c2CC2CC2)cc1
IC50 [6]: 181 nM | IC50 [4]: 0.1 nM

NS(=O)(=O)c1ccc(Cc2c(-c3ccc(F)c(Oc4[nH]nnc4C(=O)O)c3)nn(-c3nc(C(=O)O)cs3)c2CC2CC2)cc1F
IC50 (2-Hydroxyacid oxidase 1 [1]): 11 nM | IC50 [2]: 0.4 nM | IC50 [3]: 732 nM | IC50 [4]: 0.3 nM

NS(=O)(=O)c1ccc(Cc2c(-c3ccc(F)c(-c4cccc(Oc5[nH]nnc5C(=O)O)c4)c3)nn(-c3nc(C(=O)O)cs3)c2CC2CC2)cc1F
IC50 (2-Hydroxyacid oxidase 1 [1]): 0.9 nM | IC50 [2]: 0.1 nM | inhibition (Mus musculus): inactive | IC50 [3]: 143 nM | Drug uptake [9]: Not Active | IC50 [4]: 0.2 nM

O=C(O)c1nnsc1Sc1ccc(Cl)cc1
Ki (2-Hydroxyacid oxidase 1 [10]): 4500 nM

NS(=O)(=O)c1ccc(Cc2c(-c3ccc(F)c(-c4ccc(Oc5nn[nH]c5C(=O)O)cc4)c3)nn(-c3nc(C(=O)O)cs3)c2CC2CC2)cc1F
IC50 (2-Hydroxyacid oxidase 1 [1]): 1.2 nM | IC50 [2]: 0.07 nM | IC50 [3]: 198 nM | IC50 [4]: 0.4 nM

NS(=O)(=O)c1ccc(Cc2c(-c3cccc(Sc4[nH]nnc4C(=O)O)c3)nn(-c3nc(C(=O)O)cs3)c2CC2CC2)cc1F
IC50 [6]: 88 nM | IC50 (2-Hydroxyacid oxidase 1 [1]): 4.7 nM | IC50 [2]: 0.5 nM | inhibition (Mus musculus): inactive | IC50 [3]: 136 nM | Drug uptake [9]: Not Active | IC50 (2-Hydroxyacid oxidase 1 [7]): 7.7 nM | IC50 [4]: 0.7 nM

O=C1NC(=O)C(c2ccc(-c3ccc(Br)cc3)cc2)=C1O
IC50 (Hydroxyacid oxidase 1): 87 nM
